Reference: US20080064668A1, “1,3-Diacylated, 26,27-Alkyl/Haloakyl Vitamin D3 Compounds and Methods of Use Thereof” (BioXell S.p.A., priority 2003, published 2008)

Assays:
[1] = tested on: RT4; experiment: Proliferation assay using bladder cancer cell lines, RT4; type: cell-based, human; details: Homo sapiens, RT-4, 72 h, 72 h culture, CyQuant proliferation assay
Experimental: (§1) Bladder cancer cell lines (T24, RT112, HT1376 and RT4 are human bladder cancer cell lines; NHEK are normal human keratinocytes) were obtained from the European Collection of Cell Cultures (Salisbury, UK). Cells were plated at 3×10^3 per well, in flat bottomed 96-well plates in 100 μl of DMEM medium containing: 5% Fetal Clone I, 50 μg/l gentamicin, 1 mM sodium pyruvate and 1% non-essential amino acids. After culturing for 24 h at 37° C. in 5% CO2, to allow cells to adhere to the plates, VDR ligands (compounds (2), (4), (5) and other vitamin D3 analogs as shown in Table 4) were added at concentrations ranging from 100 μM to 0.3 μM in 100 μl of above-mentioned complete medium. After a further 72 h of culture, cell proliferation was measured using a fluorescence-based proliferation assay kit. (CyQuant Cell Proliferation Assay Kit, Molecular Probes, Eugene, Oreg., USA). The IC50 was calculated from the regression curve of the titration data.

[2] = Determination of Maximum Tolerated Dose (MTD)
Experimental: The maximum tolerated dose of the vitamin D3 compounds of the invention were determined in eight week-old female C57BL/6 mice (3 mice/group) dosed orally (0.1 ml/mouse) with various concentrations of Vitamin D3 analogs daily for four days. Analogs were formulated in miglyol for a final concentration of 0.01, 0.03, 0.1 0.3, 1, 3, 10, 30, 100 and 300 μg/kg when given at 0.1 ml/mouse p.o. daily. Blood for serum calcium assay was drawn by tail bleed on day five, the final day of the study.

[3] = tested on: HT 1376; experiment: Proliferation assay using bladder cancer cell lines, HT1376; type: cell-based, human; details: Homo sapiens, HT-1376; 72 h culture, CyQuant proliferation assay
Experimental: as §1

[4] = tested on: rats with CYP-induced cystitis; experiment: Cyclophosphamide (CYP) induced chronic IC in rats, cystometry; type: in vivo, Wistar rats
Excerpt: The rat model of chemical cystitis induced by intraperitoneal injection of CYP has been well accepted. CYP is used in clinical practice in the treatment of a number of malignant tumors. One of its metabolites, acrolein, is excreted in urine in large concentrations causing hemorrhagic cystitis associated with symptoms of urinary frequency, urgency and pelvic pain. The inflammatory process is characterized by changes in gross histology of bladder, increase in number and distribution of inflammatory cell infiltrates (mast cells, macrophage, PMNs), cyclo-oxygenase-2 expression and prostaglandin production, growth factor and cytokine production. […]
This model was used to test the effects of 1,25-dihydroxyvitamin D3 analogue in rats with CYP-induced cystitis. The effects of the treatment on the cystometric parameters in a conscious freely moving rat with CYP-induced cystitis were monitored. The following cystometric parameters were recorded in each animal: bladder capacity, filling pressure (pressure at the beginning of the bladder filling), threshold pressure (bladder pressure immediately prior to micturition), micturition pressure (the maximal bladder pressure during micturition), presence or absence of non-voiding bladder contractions (increases in bladder pressure of at least 10 cm H20 without release of urine), and amplitude of non-voiding bladder contraction. […]

[5] = NOD mouse body weight; type: in vivo, mice
Experimental: 1,3-Di-O-acetyl-1,25-dihydroxy-16,23Z-diene-26,27-hexafluoro-19-nor-cholecalciferol (2) was dissolved in ethanol (1 mg/ml) and then diluted in miglyol 812. […]

With `CC(=O)OC1C/C(=C/C=C2\CCC[C@]3(C)C(C(C)C/C=C\C(O)(C(F)(F)F)C(F)(F)F)=CCC23)C[C@@H](OC(C)=O)C1` (some centres unmarked) [Compound (2), 1,3-Di-O-acetyl-1,25-dihydroxy-16,23Z-diene-26,27-hexafluoro-19-nor-cholecalciferol] the IC50 [1] was 20 µM, the MTD at 4 days ([2]; female, C57BL/6, mouse, in vivo, po) was 0.1 µg/kg and the “MTD relative to compound (1)” value ([2]; mice, MTD of (2) versus parent (1)) was “more than 300 times”. For the same compound, the “MTD compared with the corresponding dihydroxy (parent) compound” value ([2]; versus (1) or (3)) was “significantly higher”, the IC50 [3] was 100 µM and the “ability to treat bladder dysfunction” value [4] was “has the ability to treat bladder dysfunction”. For the same compound, the “effect on body weight” value ([5]; 0.1 mg/Kg or 0.2 mg/Kg dose) was “did not affect body weight”, the “NOD mouse body weight” value ([5]; 0.1 mg/kg p.o., week 8) was 22.07 g and the “NOD mouse body weight” value ([5]; 0.1 mg/kg p.o., week 9) was 22.98 g. The “NOD mouse body weight” value ([5]; 0.1 mg/kg p.o., week 10) was 22.77 g, the “NOD mouse body weight” value ([5]; 0.1 mg/kg p.o., week 11) was 23.4 g and the “NOD mouse body weight” value ([5]; 0.1 mg/kg p.o., week 12) was 24.01 g. The “NOD mouse body weight” value ([5]; 0.1 mg/kg p.o., week 13) was 23.69 g, the “NOD mouse body weight” value ([5]; 0.1 mg/kg p.o., week 14) was 24.1 g and the “NOD mouse body weight” value ([5]; 0.1 mg/kg p.o., week 15) was 24.6 g. For the same compound, the “NOD mouse body weight” value ([5]; 0.1 mg/kg p.o., week 16) was 25 g, the “NOD mouse body weight” value ([5]; 0.1 mg/kg p.o., week 17) was 24.6 g and the “NOD mouse body weight” value ([5]; 0.1 mg/kg p.o., week 18) was 25.1 g. For the same compound, the “NOD mouse body weight” value ([5]; 0.1 mg/kg p.o., week 19) was 25.6 g, the “NOD mouse body weight” value ([5]; 0.1 mg/kg p.o., week 20) was 25.2 g and the “NOD mouse body weight” value ([5]; 0.1 mg/kg p.o., week 21) was 25.6 g. For the same compound, the “NOD mouse body weight” value ([5]; 0.1 mg/kg p.o., week 22) was 25.8 g, the “NOD mouse body weight” value ([5]; 0.1 mg/kg p.o., week 23) was 25.5 g and the “NOD mouse body weight” value ([5]; 0.1 mg/kg p.o., week 24) was 26.8 g. The “NOD mouse body weight” value ([5]; 0.1 mg/kg p.o., week 25) was 26.4 g, the “NOD mouse body weight” value ([5]; 0.1 mg/kg p.o., week 26) was 26.7 g and the “NOD mouse body weight” value ([5]; 0.1 mg/kg p.o., week 27) was 26.5 g. The “NOD mouse body weight” value ([5]; 0.2 mg/kg p.o., week 8) was 21.25 g, the “NOD mouse body weight” value ([5]; 0.2 mg/kg p.o., week 9) was 21.75 g and the “NOD mouse body weight” value ([5]; 0.2 mg/kg p.o., week 10) was 22.06 g. For the same compound, the “NOD mouse body weight” value ([5]; 0.2 mg/kg p.o., week 11) was 22.99 g, the “NOD mouse body weight” value ([5]; 0.2 mg/kg p.o., week 12) was 24.21 g and the “NOD mouse body weight” value ([5]; 0.2 mg/kg p.o., week 13) was 24.4 g. For the same compound, the “NOD mouse body weight” value ([5]; 0.2 mg/kg p.o., week 14) was 24.34 g, the “NOD mouse body weight” value ([5]; 0.2 mg/kg p.o., week 15) was 24.53 g and the “NOD mouse body weight” value ([5]; 0.2 mg/kg p.o., week 16) was 25.01 g. The “NOD mouse body weight” value ([5]; 0.2 mg/kg p.o., week 17) was 24.33 g, the “NOD mouse body weight” value ([5]; 0.2 mg/kg p.o., week 18) was 24.89 g and the “NOD mouse body weight” value ([5]; 0.2 mg/kg p.o., week 19) was 25.29 g. The “NOD mouse body weight” value ([5]; 0.2 mg/kg p.o., week 20) was 24.9 g, the “NOD mouse body weight” value ([5]; 0.2 mg/kg p.o., week 21) was 25.41 g and the “NOD mouse body weight” value ([5]; 0.2 mg/kg p.o., week 22) was 26.36 g. For the same compound, the “NOD mouse body weight” value ([5]; 0.2 mg/kg p.o., week 23) was 25.8 g, the “NOD mouse body weight” value ([5]; 0.2 mg/kg p.o., week 24) was 25.63 g and the “NOD mouse body weight” value ([5]; 0.2 mg/kg p.o., week 25) was 26.12 g. For the same compound, the “NOD mouse body weight” value ([5]; 0.2 mg/kg p.o., week 26) was 27.15 g and the “NOD mouse body weight” value ([5]; 0.2 mg/kg p.o., week 27) was 26.56 g.
